In US20040054130A1, “Insulin potentiating peptides” (priority 2000, published 2004):
Square brackets hold non-standard residues; d marks the D form. Ends that are not written are not given here.

What was measured:
C57BL/6J ob/ob mice = assay: Chronic administration (14 day mini-pump): body weight, food intake, plasma glucose; type: in vivo, mouse
Description: The effects of chronic administration of peptide 3 in the C57Bl/6J ob/ob diabetic model were evaluated by measurements of a number of parameters, including body weight, food intake, plasma glucose levels, plasma insulin levels, intraperitoneal glucose tolerance test and glucose uptake by adipose tissue (ex vivo). Male and female C57BL/6J ob/ob mice aged 12-15 weeks old were used. Fasting blood glucose levels were determined for all mice 14 days prior to experimentation. Only mice with fasting blood glucose levels >7.0 mmol/l were used in the study. Mice selected for this experiment were initially fasted for 4 hours, then anaesthetized with a single injection of sodium pentobarbitone (35 mg/kg). A blood sample was collected from each mouse by eye-bleed for the assessment of plasma glucose and insulin levels (day 0). Collected blood samples were stored at −20° C. until analysis was performed. A single Alzet mini-pump (#1002, Alzet, USA) containing either sterile saline (100 μl; n=14) or peptide 3 (20 μmol/kg dissolved in 100 μl saline; n=14) was inserted under the skin between the scapula of the mice. The incision was clamped and disinfected using iodine. The pumps were left for 14 days, and 5 body-weight, and food measurements were recorded during this period, at days 0, 4, 7, 10 and 14. Blood samples were collected on day 0 and 14 days post-saline (n=5) or peptide 3 (n=4) administration for plasma glucose analysis. The results reported below are expresses as mean +/− standard error.

[1] = tested on: Zucker fatty (fa/fa) female rats; assay: Acute oral administration, blood glucose; type: in vivo, rat
Description: Overnight fasted Zucker fatty (fa/fa) female rats were administered peptide 3 (ADD9903) by oral gavage at a concentration of 20 μmol/kg of body weight. Rats were then immediately anaesthetized with nembutal administered intraperitoneally in order to avoid variations arising due to activity of the rats. Blood samples were collected from the tail vein at time 0 min (immediately after oral gavage and before anaesthetic), 60 min, 120 min and 180 min, and analyzed for blood glucose by the glucose oxidation method using a YSI Model-2300 STAT glucose analyzer (Yellow Spring, Ohio). Six rats were analyzed for each of the control and treated groups.

[2] = 20 μmol/kg by mini-pump, 14 days

## Arg-D-Ala-Phe-Phe-NH2 (R[dA]FF-NH2; N-terminus assumed; SMILES C[C@@H](NC(=O)[C@@H](N)CCCNC(=N)N)C(=O)N[C@@H](Cc1ccccc1)C(=O)N[C@@H](Cc1ccccc1)C(N)=O) [Peptide 3]
C57BL/6J ob/ob mice; [2]
  body weight gain vs saline-infused mice: no significant difference
  food intake vs saline-infused mice: no significant difference
C57BL/6J ob/ob mice; continuous infusion 14 days (P<0.025)
  plasma glucose levels vs saline-infused control mice: significantly decreased
C57BL/6J ob/ob mice; day 0 to day 14, 4 h fasted
  reduction in plasma glucose levels: 11.60 ± 3.63 mmol/L
[1]; at 120 min (P<0.005)
  decrease in blood glucose, oral compared to intraperitoneal administration: more profound decrease
[1]; oral gavage 20 μmol/kg (P<0.005)
  time of maximal decrease in blood glucose: 120 min
[1]; oral gavage 20 μmol/kg, significant from 60 min (P<0.05)
  blood glucose levels compared to control rats: significantly reduced
